Among the data in ChEMBL document CHEMBL4831516, “Development of Membrane-Active Honokiol/Magnolol Amphiphiles as Potent Antibacterial Agents against Methicillin-Resistant Staphylococcus aureus (MRSA)” (J Med Chem, 2021) are MIC, HC50 and selectivity ratio values, retold here.

The first series has as its system Staphylococcus aureus. Put plainly: Antibacterial activity against methicillin-resistant Staphylococcus aureus clinical isolate M-11 assessed as inhibition of visible growth incubated for 16 to 18 hrs by CLSI method. Format: functional. The note with it: time 16-18 hrs, read-out: MIC100.
`C=CCc1ccc(O)c(-c2cc(CC=C)ccc2OCCCC[N+](C)(C)CC(=O)NCCCCCC)c1.[Br-]`: the MIC stood at 8 µg/mL.

In a further series the test system is Staphylococcus aureus. Put plainly: Antibacterial activity against methicillin-resistant Staphylococcus aureus clinical isolate M-16 assessed as inhibition of visible growth incubated for 16 to 18 hrs by CLSI method. Format: functional. As to conditions: time 16-18 hrs, read-out: MIC100.
Take `C=CCc1ccc(O)c(-c2cc(CC=C)ccc2OCCCC[N+](C)(C)CC(=O)NCCCCCC)c1.[Br-]`: the MIC is 4 µg/mL.

The test system of another series is Staphylococcus aureus. In words: Antibacterial activity against methicillin-resistant Staphylococcus aureus clinical isolate M-18 assessed as inhibition of visible growth incubated for 16 to 18 hrs by CLSI method. It counts as functional. The note with it: time 16-18 hrs, read-out: MIC100.
For the compound `C=CCc1ccc(O)c(-c2cc(CC=C)ccc2OCCCC[N+](C)(C)CC(=O)NCCCCCC)c1.[Br-]`, the MIC was determined as 4 µg/mL.

The test system of a further series is Staphylococcus aureus. Put plainly: Antibacterial activity against methicillin-resistant Staphylococcus aureus clinical isolate M-19 assessed as inhibition of visible growth incubated for 16 to 18 hrs by CLSI method. Format: functional. As to conditions: time 16-18 hrs, read-out: MIC100.
Consider `C=CCc1ccc(O)c(-c2cc(CC=C)ccc2OCCCC[N+](C)(C)CC(=O)NCCCCCC)c1.[Br-]`, for which the MIC stood at 8 µg/mL.

For another series, the system named is Salmonella enterica. Put plainly: Antibacterial activity against Salmonella enterica 349812 assessed as inhibition of visible growth incubated for 16 to 18 hrs by CLSI method. As to conditions: time 16-18 hrs, read-out: MIC100. Format: functional.
Regarding `C=CCc1ccc(O)c(-c2cc(CC=C)ccc2OCCCC[N+](C)(C)CC(=O)NCCCCCC)c1.[Br-]`, the MIC stood at 32 µg/mL.

For the next series, the system named is Salmonella enterica. Put plainly: Antibacterial activity against Salmonella enterica 8389 assessed as inhibition of visible growth incubated for 16 to 18 hrs by CLSI method. It counts as functional. The note with it: time 16-18 hrs, read-out: MIC100.
As to `C=CCc1ccc(O)c(-c2cc(CC=C)ccc2OCCCC[N+](C)(C)CC(=O)NCCCCCC)c1.[Br-]`, the MIC was 64 µg/mL.

A further series has as its system Staphylococcus aureus. In words: Antibacterial activity against methicillin-resistant Staphylococcus aureus clinical isolate M-17 assessed as inhibition of visible growth incubated for 16 to 18 hrs by CLSI method. It counts as functional. The note with it: time 16-18 hrs, read-out: MIC100.
Take `C=CCc1ccc(O)c(-c2cc(CC=C)ccc2OCCCC[N+](C)(C)CC(=O)NCCCCCC)c1.[Br-]`: the MIC came out at 4 µg/mL.

System in another series: not listed separately
In words: Hemolytic activity in sheep RBC assessed as hemolysis incubated for 1 hr. As to conditions: sheep red blood cells (erythrocytes). Format: ADME, cell-based, Ovis aries, Erythrocyte.
`C=CCc1ccc(O)c(-c2cc(CC=C)ccc2OCCCC[N+](C)(C)CC(=O)NCCCCCC)c1.[Br-]`: the HC50 (usually the concentration that lyses half of the red blood cells) at 1 h is 698 µg/mL.

In the next series the test system is Micrococcus luteus. In words: Antibacterial activity against Micrococcus luteus assessed as inhibition of visible growth incubated for 16 to 18 hrs by CLSI method. It counts as functional. The note with it: time 16-18 hrs, read-out: MIC100.
With `C=CCc1ccc(O)c(-c2cc(CC=C)ccc2OCCCC[N+](C)(C)CC(=O)NCCCCCC)c1.[Br-]`, the MIC came out at 2 µg/mL.

The next series concerns Bacillus subtilis. Put plainly: Antibacterial activity against Bacillus subtilis assessed as inhibition of visible growth incubated for 16 to 18 hrs by CLSI method. It counts as functional. As to conditions: time 16-18 hrs, read-out: MIC100.
With `C=CCc1ccc(O)c(-c2cc(CC=C)ccc2OCCCC[N+](C)(C)CC(=O)NCCCCCC)c1.[Br-]`, the MIC is 1 µg/mL.

The subject of another series is Staphylococcus aureus. Put plainly: Antibacterial activity against methicillin-resistant Staphylococcus aureus clinical isolate M-14 assessed as inhibition of visible growth incubated for 16 to 18 hrs by CLSI method. The note with it: time 16-18 hrs, read-out: MIC100. Format: functional.
Take `C=CCc1ccc(O)c(-c2cc(CC=C)ccc2OCCCC[N+](C)(C)CC(=O)NCCCCCC)c1.[Br-]`: the MIC was 8 µg/mL.

A further series concerns Escherichia coli. In words: Antibacterial activity against Escherichia coli ATCC25922 assessed as inhibition of visible growth incubated for 16 to 18 hrs by CLSI method. Format: functional. As to conditions: time 16-18 hrs, read-out: MIC100.
Turning to `C=CCc1ccc(O)c(-c2cc(CC=C)ccc2OCCCC[N+](C)(C)CC(=O)NCCCCCC)c1.[Br-]`, the MIC was determined as 16 µg/mL.

For a further series, the system named is Staphylococcus aureus. Put plainly: Antibacterial activity against methicillin-resistant Staphylococcus aureus clinical isolate M-15 assessed as inhibition of visible growth incubated for 16 to 18 hrs by CLSI method. It counts as functional. The note with it: time 16-18 hrs, read-out: MIC100.
In the case of `C=CCc1ccc(O)c(-c2cc(CC=C)ccc2OCCCC[N+](C)(C)CC(=O)NCCCCCC)c1.[Br-]`, the MIC is 8 µg/mL.

System in a further series: not listed separately
Put plainly: Selectivity index, HC50 for hemolytic activity in sheep RBC to MIC for antibacterial activity against Staphylococcus aureus ATCC29213. Format: toxicity. The note with it: sheep red blood cells (erythrocytes), read-out: Selectivity Index.
With `C=CCc1ccc(O)c(-c2cc(CC=C)ccc2OCCCC[N+](C)(C)CC(=O)NCCCCCC)c1.[Br-]`, the selectivity ratio turned out to be 349.

Another series deals with Staphylococcus aureus. Put plainly: Antibacterial activity against Staphylococcus aureus ATCC29213 assessed as inhibition of visible growth incubated for 16 to 18 hrs by CLSI method. Format: functional. The note with it: time 16-18 hrs, read-out: MIC100.
As to `C=CCc1ccc(O)c(-c2cc(CC=C)ccc2OCCCC[N+](C)(C)CC(=O)NCCCCCC)c1.[Br-]`, the MIC turned out to be 2 µg/mL.

Another series concerns Staphylococcus aureus. In words: Antibacterial activity against methicillin-resistant Staphylococcus aureus clinical isolate M-12 assessed as inhibition of visible growth incubated for 16 to 18 hrs by CLSI method. It counts as functional. As to conditions: time 16-18 hrs, read-out: MIC100.
`C=CCc1ccc(O)c(-c2cc(CC=C)ccc2OCCCC[N+](C)(C)CC(=O)NCCCCCC)c1.[Br-]`: the MIC worked out at 8 µg/mL.

A further series concerns Enterococcus faecalis. Put plainly: Antibacterial activity against Enterococcus faecalis ATCC29212 assessed as inhibition of visible growth incubated for 16 to 18 hrs by CLSI method. It counts as functional. As to conditions: time 16-18 hrs, read-out: MIC100.
For `C=CCc1ccc(O)c(-c2cc(CC=C)ccc2OCCCC[N+](C)(C)CC(=O)NCCCCCC)c1.[Br-]`, the MIC amounted to 4 µg/mL.

In the next series the test system is Staphylococcus aureus. In words: Antibacterial activity against methicillin-resistant Staphylococcus aureus clinical isolate M-13 assessed as inhibition of visible growth incubated for 16 to 18 hrs by CLSI method. Format: functional. The note with it: time 16-18 hrs, read-out: MIC100.
Consider `C=CCc1ccc(O)c(-c2cc(CC=C)ccc2OCCCC[N+](C)(C)CC(=O)NCCCCCC)c1.[Br-]`, for which the MIC stood at 8 µg/mL.

For the next series, the system named is Staphylococcus aureus. In words: Antibacterial activity against methicillin-resistant Staphylococcus aureus clinical isolate M-20 assessed as inhibition of visible growth incubated for 16 to 18 hrs by CLSI method. Format: functional. The note with it: time 16-18 hrs, read-out: MIC100.
`C=CCc1ccc(O)c(-c2cc(CC=C)ccc2OCCCC[N+](C)(C)CC(=O)NCCCCCC)c1.[Br-]`: the MIC is 4 µg/mL.

The subject of a further series is Stenotrophomonas maltophilia. In words: Antibacterial activity against Stenotrophomonas maltophilia assessed as inhibition of visible growth incubated for 16 to 18 hrs by CLSI method. It counts as functional. As to conditions: time 16-18 hrs, read-out: MIC100.
For the compound `C=CCc1ccc(O)c(-c2cc(CC=C)ccc2OCCCC[N+](C)(C)CC(=O)NCCCCCC)c1.[Br-]`, the MIC turned out to be 32 µg/mL.
